Where two headings read alike, the source gives them in different places. Where no end group is shown, it is not given here.
How the values were obtained:
S. aureus (ATCC6538) = type: cell-based, Staphylococcus aureus
human erythrocytes = test: Hemolysis assay; type: cell-based
Description: Hemolysis was determined by incubating 10% (v/v) suspension of human erythrocytes with peptides. Erythrocytes were rinsed four times in 10 mM PBS, pH 7.2, by repeated centrifugation and resuspension (3 min at 3000 × g). Erythrocytes were incubated at room temperature for 1 h in either deionized water (fully hemolysed control), PBS, or with peptide in PBS. After centrifugation at 10,000 × g for 5 min, the supernatant was separated from the pellet and the absorbance measured at 550 nm. Absorbance of the suspension treated with deionized water defined complete hemolysis. The values below correspond to the percentage of hemolysis at tested concentrations. All tests were done in triplicate.

[1] = test system: Micrococcus luteus NCIMB 13267; type: cell-based
Description: (§1) MICs were determined by broth microdilution on Pseudomonas aeruginosa ATCC 27853, Escherichia coli K12, Staphylococcus aureus ATCC 25723, Micrococcus luteus NCIMB 13267, and Bacillus subtilis ATCC 6633 according to the Clinical and Laboratory Standards Institute. Typically, 100 μl of 0.5–1 × 10^6 cfu/ml of each bacterium in Mueller-Hinton medium broth (Oxoid) was incubated in 96-well microtiter plates with 100 μl of serial 2-fold dilutions of the peptides (from 100 to 0 μM) at 37 °C on a three-dimensional orbital shaker. The absorbance was measured after peptide addition at 600 nm using a Victor 2 plate reader (PerkinElmer Life Sciences). MICs were defined as the lowest peptide concentration after 24 h at 37 °C. All tests were done in triplicate.

[2] = test system: Bacillus subtilis ATCC 6633; type: cell-based
Description: as §1

[3] = test system: Pseudomonas aeruginosa ATCC 27853; type: cell-based
Description: as §1

Escherichia coli K12 = type: cell-based
Description: as §1

S. aureus (ATCC 25723) = type: cell-based
Description: S. aureus (ATCC 25723) culture (1 ml) was centrifuged to give a cell pellet, which was washed twice with 10 mM phosphate buffer, pH 7.4, before being reconstituted in phosphate buffer to give A600 nm = 0.008. 1 ml of the solution was dispensed in a 2-well glass chamber (LabTek) with diluted (1/500) propidium iodide (1 mg/ml, from Invitrogen). The chambers with surface-settled bacteria (60 min) were mounted on a confocal microscope (Olympus) equipped with an incubation chamber at 37 °C. Propidium iodide fluorescence emission was monitored at 625 nm for 60 min (three frames/min) using an appropriate filter after the addition of peptide (1 ml). Recorded images (XYZ) were analyzed using Fiji software to plot the number of fluorescent (stain-dead) cells as a function of time.

P. aeruginosa = test: Gram stain assay after overnight incubation with peptide; type: cell-based, Pseudomonas aeruginosa; settings: incubated with peptide for 16 h, optical microscopy; anti-cBt:cBt 10:1 (100:10 μM)
Description: (§2) 20 μl of a bacterium culture was dispensed onto a glass slide and spread well. The slide was swiftly passed through a Bunsen flame to dry and fix cells before staining. The fixed bacteria were first covered in crystal violet (0.25%) for 30 s followed by washing with water (distilled, filtered 0.22 μm) until all of the excess stain was washed off, and then with iodine (1.0%) for 2 min before washing with a minimum amount of acetone needed to rinse off the iodine color. The cells were counterstained with safranin (0.5%) for 30 s, washed with water, and dried by a Bunsen flame. The obtained slides were viewed under a Leica DMLB fluorescent microscope. The images were obtained at ×100 magnification under oil and analyzed by ImageJ.

cBt = test: Isothermal titration calorimetry of anti-cBt into cBt; type: binding; settings: ITC, 20 °C
Description: Measurements were obtained using a Microcal VP-isothermal titration calorimeter and a calorimetric cell (initial volume 1.46 ml) with a 260-s equilibration time and a 120-s initial delay after each addition. The titrations were performed at 20 °C with stirring until no further enthalpy changes were observed. Binding isotherms were recorded for cBt (30 μM) following the injection of anti-cBt (2 μl aliquots, 1.4 mM) into the cell. The observed heats were corrected for dilution effects by titrating peptide solutions, as appropriate, into the buffer and using the heat of last injections due to negligible differences between the first and last injections. All the data were corrected for the volume of the added titrant and analyzed by proprietary software (Microcal Origin 7) using a one-site binding model to allow for the determination of association constants (Ka), changes in enthalpy (ΔH) and enthropy (ΔS). Each experiment was performed in triplicate.

E. coli = test: Gram stain assay after overnight incubation with peptide; type: cell-based, Escherichia coli; settings: incubated with peptide for 16 h, optical microscopy; anti-cBt:cBt 10:1 (100:10 μM)
Description: as §2

[4] = broth microdilution, Mueller-Hinton broth, 24 h, 37 °C, A600, triplicate
[5] = human erythrocytes 10% (v/v) in PBS pH 7.2, 1 h, room temperature, A550, 50% cell death compared with untreated cells, triplicate

Row | Substance | Minimum inhibitory concentration (MIC) S. aureus (ATCC6538) (S. aureus (ATCC6538); ATCC6538, 24 h) | HE (LC50) (human erythrocytes; pH 7.2) | Minimum inhibitory concentration (MIC) M. luteus (NCIMB 13267) ([1]; NCIMB 13267, 24 h) | Minimum inhibitory concentration (MIC) B. subtilis (ATCC6633) ([2]; ATCC 6633, 24 h) | Minimum inhibitory concentration (MIC) P. aeruginosa (ATCC27853) ([3]; ATCC 27853, 24 h) | Minimum inhibitory concentration (MIC) E. coli (K12) (Escherichia coli K12; K12, 24 h) | effect on killing of S. aureus at concentrations >100 μM (S. aureus (ATCC 25723); stain-dead S. aureus, propidium iodide, 37 °C) | killing rate at higher concentrations (>250 μM) (S. aureus (ATCC 25723); stain-dead S. aureus, cBt at MIC after 1 h = 100%) | effect on P. aeruginosa cell growth, Gram stain (P. aeruginosa) | association (binding) constant (Ka) (cBt; anti-cBt (1.4 mM) injected into cBt (30 μM), one-site binding model, triplicate) | ΔG of binding (cBt; anti-cBt into cBt (30 μM)) | binding enthalpy (ΔH) (cBt; anti-cBt into cBt (30 μM), endothermic) | effect on E. coli cell growth, Gram stain (E. coli) | Minimum inhibitory concentration (MIC) S. aureus (ATCC6538) (S. aureus (ATCC6538); [4]) | HE (LC50) (human erythrocytes; [5]) | Minimum inhibitory concentration (MIC) M. luteus (NCIMB 13267) [1, 4] | Minimum inhibitory concentration (MIC) B. subtilis (ATCC6633) [2, 4] | Minimum inhibitory concentration (MIC) P. aeruginosa (ATCC27853) [3, 4] | Minimum inhibitory concentration (MIC) E. coli (K12) (Escherichia coli K12; [4]) | killing rate in the first 30 min (S. aureus (ATCC 25723); ATCC 25723, 1 h, 100 μM, pH 7.4)
1 | GRFKRFRKKFKKLFKKLSPVIPLLHLG-NH2 [b27, bovine myeloid antimicrobial peptide-27, reference compound] | >100 µM | ≫250 μM | 0.74 ± 0.33 µM | 0.78 ± 0.01 µM | 4.51 ± 1.56 µM | 3.13 ± 0.43 µM |  |  |  |  |  |  |  |  |  |  |  |  |  | 
2 | EAQNLEKEIAALEQAIQGLEKEIPALAQQIQALEL-NH2 [Anti-cBt] |  |  |  |  |  |  | No effects | 10% | No obvious effects | 2.8 ± 0.2 × 10^6 M^−1 | -7.8 kcal/mol | 9.7 kcal/mol | No obvious effects | >200 µM | ≫250 μM | >200 µM | >200 µM | >200 µM | >200 µM | 
3 | KWKVFKKIEKMGRNIRNGIVKAGPAIAVLGEAKAL-NH2 (C-terminus assumed) [cB, cecropin B, reference compound] | >100 µM |  | 0.46 ± 0.20 µM | 50.7 ± 0.10 µM | 1.56 ± 0.01 µM | 0.62 ± 0.01 µM |  |  |  |  |  |  |  |  | ≫250 μM |  |  |  |  | ~60%
4 | GEFAQFEQEAQSLEQELSQLEQQLESL-NH2 [Anti-b27] | >200 µM | ≫250 μM | >200 µM | >200 µM | >200 µM | >200 µM |  |  |  |  |  |  |  |  |  |  |  |  |  | 
